Experimental data as given in US7285566B2, “Resistance-repellent retroviral protease inhibitors” (priority 2002, dated 2007).

Assays:
[1] = test system: highly cross-resistant clinical HIV-1 strains; assay: In vitro activity against highly PI-resistant clinical HIV-1 strains from AIDS patients; assay type: cell-based; settings: for potency against the multidrug resistant strains of HIV: multidrug resistant vs wild type strains
Protocol: The sensitivities of HIV-1LAI, HIV-1Ba-L, HIV-2EHO and the primary HIV-1 isolates against various drugs were determined as previously described with minor modifications (Shiraska et al., Proc. Natl. Acad. Sci. USA, 92, 2398-2402 (1995)).

HIV-1UIC-P62 = assay: Sensitivity of compound 1-selected HIV-1 (passage 62) to PIs; assay type: cell-based; settings: for sensitivity compared with the parental HIV-1NL4-3: HIV-1UIC-P62; for IC50 fold greater than that of HIV-1NL4-3: HIV-1UIC-P62 (passage 62 with 2 μM 1) vs parental HIV-1NL4-3
D30N mutant HIV protease = D30N mutant HIV protease (Human immunodeficiency virus type 1 group M subtype B, UniProt P03367, D530N); assay: Effect of D30N protease mutation on inhibitor binding

| Compound | potency against the multidrug resistant strains of HIV [1] | level of resistance of the clinical strains ([1]; compared to wild-type clinical strain HIV-1ERS104pre) | sensitivity compared with the parental HIV-1NL4-3 (HIV-1UIC-P62) | effect of D30N mutation on binding (D30N mutant HIV protease) | IC50 fold greater than that of HIV-1NL4-3 (HIV-1UIC-P62) [fold] |
| --- | --- | --- | --- | --- | --- |
| CC(C)CN(C[C@@H](O)[C@H](Cc1ccccc1)NC(=O)O[C@H]1CCOC1)S(=O)(=O)c1ccc(N)cc1 [Compound 2, Amprenavir] | dramatically less potent | – | – | – | – |
| CC(C)(C)NC(=O)[C@@H]1C[C@@H]2CCCC[C@@H]2CN1C[C@@H](O)[C@H](Cc1ccccc1)NC(=O)[C@H](CC(N)=O)NC(=O)c1ccc2ccccc2n1 [Compound 4, Saquinavir] | dramatically less potent | 3-31 fold | as sensitive | – | – |
| COc1ccc(S(=O)(=O)N(CC(C)C)C[C@@H](O)[C@H](Cc2ccccc2)NC(=O)O[C@H]2CO[C@H]3OCC[C@H]32)cc1 [Compound 1] | – | – | – | no effect | – |
| Cc1c(O)cccc1C(=O)N[C@@H](CSc1ccccc1)[C@H](O)CN1C[C@H]2CCCC[C@H]2C[C@H]1C(=O)NC(C)(C)C [Compound 7, Nelfinavir] | dramatically less potent | – | – | – | 5 |
| CC(C)c1nc(CN(C)C(=O)N[C@H](C(=O)N[C@@H](Cc2ccccc2)C[C@H](O)[C@H](Cc2ccccc2)NC(=O)OCc2cncs2)C(C)C)cs1 [Compound 5, Ritonavir] | dramatically less potent | – | as sensitive | – | – |
| CC(C)(C)NC(=O)[C@@H]1CN(Cc2cccnc2)CCN1C[C@@H](O)C[C@@H](Cc1ccccc1)C(=O)N[C@H]1c2ccccc2C[C@H]1O [Compound 6, Indinavir] | dramatically less potent | – | – | – | 7 |
